The test system of one data set is Rat liver microsome. As to the kind of experiment: Liver microsomal stability assay, rat. The data set is classed as in vitro ADME. The conditions noted are these: 40 μM, 37° C., 30 min, 1 mg/ml microsome proteins; class relative to deuterium non-enriched counterpart. Details: key: A: the percentage of a compound remains is greater than that of its deuterium non-enriched counterpart; B: a result otherwise. On the procedure: (§1) A standard liver microsomal stability assay can be used to test or screen the compounds of this invention and to identify compounds with enhanced metabolic stability due to the enrichment of deuterium in the compounds. Liver microsome proteins prepared from different species such as mouse and rat were obtained from a commercial source (Research Institute for Liver Diseases, Shanghai, China). The assay was conducted in 1.5% potassium hydrogenphosphate (K2HPO4) in the presence of liver microsome proteins at 1 mg/ml and supplemented with an […] (3.3 mM NADPH, 3.3 mM glucose-6-phosphate, 6 units/ml G6PDase, and 3.3 mM magnesium chloride). Test compound was added into the assay mixture to a final concentration of 40 μM and incubated at 37° C. for 0 or 30 minutes. The reaction was stopped by the addition of 20 μM Bifonazole/CAN. Samples were then centrifuged at 14000 rpm for 10 minutes to precipitate proteins. Supernatant were then transferred to microcentrifuge tubes and subject to reverse phase HPLC analysis to determine the concentration of test compound.
(§2) The percentage of compounds that remained in the assay reactions after a thirty-minute incubation at 37° C. is calculated as the ratio between the amount of compound remained after a thirty-minute and that after a zero-minute incubation.

For a further data set, the system named is Mouse liver microsome. The data set can be described thus: Liver microsomal stability assay, mouse. The data set is classed as in vitro ADME. The arrangement: key: A: the percentage of a compound remains is greater than that of its deuterium non-enriched counterpart; B: a result otherwise. Conditions: 40 μM, 37° C., 30 min, 1 mg/ml microsome proteins; class relative to deuterium non-enriched counterpart. On the procedure: as §1, §2

The next data set addresses T1, EphB4 (Homo sapiens, UniProt P54760).
T1 construct: EphB4 autophosphorylation in PC-3 human prostate cancer cells; host or cells: PC-3 human prostate cancer cells
T1 sequence (P54760 16-987): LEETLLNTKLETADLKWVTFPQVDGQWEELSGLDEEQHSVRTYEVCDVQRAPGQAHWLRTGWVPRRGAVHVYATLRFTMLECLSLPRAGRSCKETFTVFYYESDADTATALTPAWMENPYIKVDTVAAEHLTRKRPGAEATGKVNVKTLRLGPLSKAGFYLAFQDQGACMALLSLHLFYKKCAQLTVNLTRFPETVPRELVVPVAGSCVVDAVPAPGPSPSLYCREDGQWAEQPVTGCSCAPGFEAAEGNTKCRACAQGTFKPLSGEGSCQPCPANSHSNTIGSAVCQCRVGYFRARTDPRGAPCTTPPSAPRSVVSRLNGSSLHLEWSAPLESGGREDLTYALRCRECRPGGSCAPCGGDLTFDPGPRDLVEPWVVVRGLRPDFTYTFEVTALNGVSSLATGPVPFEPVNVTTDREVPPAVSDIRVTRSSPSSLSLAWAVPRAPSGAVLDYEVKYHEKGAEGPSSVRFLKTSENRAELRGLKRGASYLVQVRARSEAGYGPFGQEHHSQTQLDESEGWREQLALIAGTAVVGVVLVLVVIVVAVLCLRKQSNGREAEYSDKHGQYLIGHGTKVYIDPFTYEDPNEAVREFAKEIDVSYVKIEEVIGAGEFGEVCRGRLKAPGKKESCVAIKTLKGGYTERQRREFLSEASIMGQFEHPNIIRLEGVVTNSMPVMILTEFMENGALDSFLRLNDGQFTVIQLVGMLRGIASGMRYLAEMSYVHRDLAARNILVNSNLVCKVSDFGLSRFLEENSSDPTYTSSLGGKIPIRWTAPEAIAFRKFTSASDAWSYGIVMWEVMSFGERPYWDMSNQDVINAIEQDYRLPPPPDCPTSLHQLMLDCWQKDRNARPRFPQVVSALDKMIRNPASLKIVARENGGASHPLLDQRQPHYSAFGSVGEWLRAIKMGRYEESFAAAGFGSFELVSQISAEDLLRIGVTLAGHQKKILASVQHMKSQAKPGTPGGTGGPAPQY
As to the kind of experiment: EphB4 cell-based assay (quantitative Western blotting, PC-3 cells, Ephrin-B2 stimulated). The conditions noted are these: compound at 100 nM; PC-3 human prostate cancer cells; Ephrin-B2 stimulation; read-out: % EphB4 kinase activity remains. The text has this:
A standard image-based quantitative Western blotting assay for EphB4 kinase activity can be used to test or screen the compounds of this invention and to identify EphB4 antagonists.
The kinase activity of EphB4 in cells depends on its autophosphorylation level stimulated by the binding to its ligand Ephrin-B2. High level of EphB4 autophosphorylation in PC-3 human prostate cancer cells (ATCC, USA) induced by the application of Ephrin-B2 to the cell culture can be observed by regular Western blotting assay.
A compound to be tested was first dissolved in DMSO to a concentration of 10 mM and stored at −20° C. On the day of screening procedure, the compound in DMSO was added into DMEM medium to a final concentration of 100 nM. Two hours later, Ephrin-B2 ([…]) was added into DMEM medium to stimulate the production of phosphor-EphB4. The phosphor-EphB4 was detected based on its molecular weight and with anti-phosphor protein antibody PY-20 in cell lysate from approximately 5×10^5 PC-3 cells by Western blotting followed by imaging quantification. The relative level of EphB4 kinase activity was quantified as the ratio between the amount of phosphor-EphB4 and that of total Actin proteins.

For the next data set, the target named is T2, VEGFR2 (Homo sapiens, UniProt P35968).
T2 construct: expressed in transfected cells; host or cells: CHO cells
T2 sequence (P35968 20-1356): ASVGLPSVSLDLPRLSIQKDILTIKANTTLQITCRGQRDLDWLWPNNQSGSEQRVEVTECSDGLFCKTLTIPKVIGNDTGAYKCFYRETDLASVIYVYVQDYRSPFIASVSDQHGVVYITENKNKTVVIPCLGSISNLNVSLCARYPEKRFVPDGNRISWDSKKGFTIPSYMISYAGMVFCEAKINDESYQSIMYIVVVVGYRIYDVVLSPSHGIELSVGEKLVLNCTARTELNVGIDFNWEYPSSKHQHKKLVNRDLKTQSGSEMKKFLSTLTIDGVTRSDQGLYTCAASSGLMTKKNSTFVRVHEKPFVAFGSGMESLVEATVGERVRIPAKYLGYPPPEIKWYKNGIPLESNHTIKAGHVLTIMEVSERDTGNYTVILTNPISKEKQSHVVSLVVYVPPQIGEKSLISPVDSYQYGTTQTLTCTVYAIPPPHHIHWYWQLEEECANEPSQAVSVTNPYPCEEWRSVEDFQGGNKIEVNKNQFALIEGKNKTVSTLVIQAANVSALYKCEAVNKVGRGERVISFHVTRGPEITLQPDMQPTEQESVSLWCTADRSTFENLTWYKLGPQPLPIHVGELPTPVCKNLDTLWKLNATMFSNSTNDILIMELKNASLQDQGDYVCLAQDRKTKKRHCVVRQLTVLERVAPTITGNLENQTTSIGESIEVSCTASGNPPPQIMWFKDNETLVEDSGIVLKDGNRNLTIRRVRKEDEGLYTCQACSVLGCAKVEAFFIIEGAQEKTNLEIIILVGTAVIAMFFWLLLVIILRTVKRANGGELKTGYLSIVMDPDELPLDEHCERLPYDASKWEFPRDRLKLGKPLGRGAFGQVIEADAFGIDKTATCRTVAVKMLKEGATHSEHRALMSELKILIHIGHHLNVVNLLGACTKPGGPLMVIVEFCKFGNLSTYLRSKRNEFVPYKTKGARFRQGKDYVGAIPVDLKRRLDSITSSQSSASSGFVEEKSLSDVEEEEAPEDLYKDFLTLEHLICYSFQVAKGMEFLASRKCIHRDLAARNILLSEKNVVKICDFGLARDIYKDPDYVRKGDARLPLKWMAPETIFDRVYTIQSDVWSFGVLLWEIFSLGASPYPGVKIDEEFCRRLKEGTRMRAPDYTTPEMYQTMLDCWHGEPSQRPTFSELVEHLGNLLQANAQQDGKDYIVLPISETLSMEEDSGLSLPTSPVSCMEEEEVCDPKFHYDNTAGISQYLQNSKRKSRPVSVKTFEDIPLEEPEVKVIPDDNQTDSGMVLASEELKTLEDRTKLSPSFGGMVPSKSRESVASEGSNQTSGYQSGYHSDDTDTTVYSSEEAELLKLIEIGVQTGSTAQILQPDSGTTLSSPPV
As to the kind of experiment: VEGFR2 cell-based assay (ELISA, phosphor-/total VEGFR2 in transfected CHO cells). The conditions noted are these: compound at 100 nM; CHO cells transfected with full length VEGFR2; FBS stimulation; read-out: % VEGFR2 kinase activity remains. The source says:
A standard cell-based assay for VEGFR2 kinase activity can be used to test or screen the compounds of this invention and to identify VEGFR2 antagonists. In this example, ELISA kits (R&D Systems, Inc., Minneapolis, Minn. 55413, USA) were used.
The activity of VEGFR2 in cells depended on its autophosphorylation level by various factors including growth factors. In order to induce the cell to produce VEGFR2, full length of VEGFR2 sequence was cloned into PC-DNA3.1 vector, the plasmid was then transfected into CHO cells. After 48 hours, the expression of VEGFR2 in transfected CHO cells was confirmed by regular western blotting.
A compound to be tested was first dissolved in DMSO to a concentration of 10 mM and stored at −20° C. One day before the test, CHO cells transfected with full length VEGFR2 plasmid were grown in Dulbecco's Modified Eagle Medium (DMEM) without the presence of serum. On the day of the test, the compounds with various concentrations in DMSO (from 0.5 nM to 500 nM) were added into DMEM. Two hours later, 20% of FBS (Fetal Bovine Serum) was added into the medium to stimulate the production of phosphor-VEGFR2. Cell lysate from approximately 5×10^5 transfected CHO cells were reacted with anti-phosphor VEGFR2 or anti-total VEGFR2 antibody in 96-well plates, in the presence of detection antibody. The phosphor-VEGFR2 or total VEGFR2 were detected with Streptavidin-HRP(R&D Systems), followed by chemiluminescent detection. The level of VEGFR2 kinase activity was quantified as the ratio between the amount of phosphor- and that of total VEGFR2 proteins.
(In general: In an ELISA, binding on a coated surface is turned into a signal by an enzyme label.)

Where a name gives a salt, the structure may show the parent alone. Where only a bound is given, the exact number is not on record here.

Take `[2H]C([2H])(c1ccnc(N)c1)N1CCc2c(NC(=O)Nc3cc(Cl)ccc3OC)cccc21` [Example 1, 1-[1-[(2-Amino-4-pyridyl)-dideuteriomethyl]indolin-4-yl]-3-(5-chloro-2-methoxyphenyl)urea]: the “% of compound remained at the 30th minutes, Rat liver microsome” value (“% of compound remained … Rat liver microsome” below) in the data set with Rat liver microsome is given as “A”. The “% of compound remained at the 30th minutes, Mouse liver microsome” value with Mouse liver microsome is given as “A”. Also, the remaining activity at 0.1 µM at EphB4 and at VEGFR2 was less than 70% each time.

For the molecule `Cl.[2H]C([2H])(c1ccnc(N)c1)n1ccc2c(NC(=O)Nc3cc(Cl)ccc3OC)cccc21` [Example 2, 1-[1-[(2-amino-4-pyridyl)-dideuteriomethyl]indol-4-yl]-3-(5-chloro-2-methoxyphenyl)urea hydrochloride], the “% of compound remained … Rat liver microsome” value in the data set with Rat liver microsome was “A”. In addition, in the data set on Mouse liver microsome, the “% of compound remained at the 30th minutes, Mouse liver microsome” value was “A”. The remaining activity at 0.1 µM at EphB4 and at VEGFR2 was less than 70% in each case.

In the case of `[2H]C([2H])([2H])Oc1ccc(Cl)cc1NC(=O)Nc1cccc2c1CCN2C([2H])([2H])c1ccnc(N)c1` [Example 3, 1-[1-[(2-Amino-4-pyridyl)-dideuteriomethyl]indolin-4-yl]-3-[5-chloro-2-(trideuteriomethoxy)phenyl]urea], the “% of compound remained … Rat liver microsome” value in the data set on Rat liver microsome is listed as “A”. Further, the “% of compound remained at the 30th minutes, Mouse liver microsome” value in the data set on Mouse liver microsome was “B”. For the same molecule, the remaining activity at 0.1 µM on EphB4 and at VEGFR2 was less than 70% in each case.

On to `[2H]C([2H])([2H])Oc1ccc(Cl)cc1NC(=O)Nc1cccc2c1ccn2C([2H])([2H])c1ccnc(N)c1` [Example 4, 1-[1-[(2-amino-4-pyridyl)-dideuteriomethyl]indol-4-yl]-3-[5-chloro-2-(trideuteriomethoxy)phenyl]urea], for which the “% of compound remained … Rat liver microsome” value in the data set on Rat liver microsome was “A”. Moreover, the “% of compound remained at the 30th minutes, Mouse liver microsome” value with Mouse liver microsome is recorded as “B”. The remaining activity at 0.1 µM at EphB4 and on VEGFR2 was less than 70% each time.

For the molecule `[2H]C([2H])([2H])Oc1ccc(Cl)cc1NC(=O)Nc1cccc2c1CCN2Cc1ccnc(N)c1` [Example 5, 1-[1-[(2-Amino-4-pyridyl)methyl]indolin-4-yl]-3-[5-chloro-2-(trideuteriomethoxy)phenyl]urea], the “% of compound remained … Rat liver microsome” value with Rat liver microsome is given as “A”. The “% of compound remained at the 30th minutes, Mouse liver microsome” value in the data set on Mouse liver microsome is given as “B”. The remaining activity at 0.1 µM at EphB4 and on VEGFR2 was less than 70% throughout.

As to `[2H]C([2H])([2H])Oc1ccc(Cl)cc1NC(=O)Nc1cccc2c1ccn2Cc1ccnc(N)c1` [Example 6, 1-[1-[(2-amino-4-pyridyl)methyl]indol-4-yl]-3-[5-chloro-2-(trideuteriomethoxy)phenyl]urea], in the data set with Rat liver microsome, the “% of compound remained … Rat liver microsome” value was “A”. For the same molecule, in the data set on Mouse liver microsome, the “% of compound remained at the 30th minutes, Mouse liver microsome” value is reported as “B”. Moreover, the remaining activity at 0.1 µM at EphB4 is less than 70%; on VEGFR2 it was not below 70%.

As to `Cl.[2H]C([2H])([2H])Oc1ccc(Cl)cc1NC(=O)Nc1cccc2c1CCN2C([2H])([2H])c1ccnc2[nH]ccc12` [Example 7, 1-[5-Chloro-2-(trideuteriomethoxy)phenyl]-3-[1-[dideuterio(1H-pyrrolo[2,3-b]pyridin-4-yl)methyl]indolin-4-yl]urea hydrochloride], the “% of compound remained … Rat liver microsome” value in the data set on Rat liver microsome was “A”. The “% of compound remained at the 30th minutes, Mouse liver microsome” value in the data set on Mouse liver microsome is “A”. The remaining activity at 0.1 µM is not below 70% at EphB4 and less than 70% at VEGFR2.

For `Cl.[2H]C([2H])([2H])Oc1ccc(Cl)cc1NC(=O)Nc1cccc2c1ccn2C([2H])([2H])c1ccnc2[nH]ccc12` [Example 8, 1-[5-chloro-2-(trideuteriomethoxy)phenyl]-3-[1-[dideuterio(1H-pyrrolo[2,3-b]pyridin-4-yl)methyl]indol-4-yl]urea hydrochloride], the “% of compound remained … Rat liver microsome” value in the data set with Rat liver microsome is “A”. Besides, in the data set on Mouse liver microsome, the “% of compound remained at the 30th minutes, Mouse liver microsome” value is given as “A”. In addition, the remaining activity at 0.1 µM was not below 70% at EphB4 and less than 70% on VEGFR2.

With `[2H]C([2H])(c1ccnc2[nH]ccc12)N1CCc2c(NC(=O)Nc3cc(Cl)ccc3OC)cccc21` [Example 9, 1-(5-Chloro-2-methoxyphenyl)-3-[1-[dideuterio(1H-pyrrolo[2,3-b]pyridin-4-yl)methyl]indolin-4-yl]urea hydrochloride], the “% of compound remained … Rat liver microsome” value in the data set on Rat liver microsome is on record as “A”. Further, the “% of compound remained at the 30th minutes, Mouse liver microsome” value in the data set with Mouse liver microsome is reported as “A”. Also, the remaining activity at 0.1 µM was not below 70% at EphB4 and less than 70% at VEGFR2.

As for `[2H]C([2H])(c1ccnc2[nH]ccc12)n1ccc2c(NC(=O)Nc3cc(Cl)ccc3OC)cccc21` [Example 10, 1-(5-chloro-2-methoxyphenyl)-3-[1-[dideuterio(1H-pyrrolo[2,3-b]pyridin-4-yl)methyl]indol-4-yl]urea hydrochloride], the “% of compound remained … Rat liver microsome” value in the data set on Rat liver microsome is “B”. For the same molecule, the “% of compound remained at the 30th minutes, Mouse liver microsome” value in the data set on Mouse liver microsome was “A”. The remaining activity at 0.1 µM at EphB4 was not below 70%; at VEGFR2, less than 70%.
